Several values for one entry are separate records, joined by “and”; a condition that tells them apart may be missing. Equal values may be shown once.
Experiments:
Cdk2(S276C) (C177A) = biological target: T1, Cdk2(S276C) (C177A) (Homo sapiens, UniProt P24941, C177A/S276C); experiment: Kinetic thiol consumption assay with Cdk2 mutant S276C; assay type: binding; design: key to Rate enhancement, Cdk2 S276C: rate constant with Cdk2 ÷ rate constant with model thiol (fold); settings: for Rate enhancement, Cdk2 S276C / Rate constant with Cdk2 S276C: additional mutation C177A; for Rate constant with Cdk2 S276C: Protein: Cdk2, cysteine position S276C, in h^-1
T1 construct: poly-histidine; made in house; host or cells: E. coli
Outline: (§1)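 Thiol consumption was monitored kinetically using 5 μM Cdk2 (C177A plus one introduced cysteine) in degassed phosphate buffer at pH 8 with TCEP beads. Plates were kept 1 h at room temperature before fluorescence reading, and rate constants came from exponential decay fitting.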

[1] = biological target: T2, human cyclin-dependent kinase 2 (Cdk2) (Homo sapiens, UniProt P24941); experiment: Kinetic thiol consumption assay with wild type Cdk2 (C177); assay type: binding; design: key to Rate enhancement, Cdk2 WT: k(Cdk2) divided by k(model thiol); Rate constant with Cdk2 (k(Cdk2)): unit not given here; settings: for Rate constant with Cdk2 (k(Cdk2)): 500 μM ligand, 5 μM thiol, phosphate buffer pH 8; for Rate enhancement, Cdk2 WT: no additional mutations; for Rate constant with Cdk2 WT: Protein: Cdk2, cysteine position WT, in h^-1; for k(Cdk2)/k(Cdk2_mut) rate enhancement: model thiol Cdk2[C177A, F80C, K278C]; for k(Cdk2)/k(GSH) rate enhancement: model thiol glutathione
T2 construct: poly-histidine; made in house; host or cells: E. coli
Outline: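 His-tagged human Cdk2 from E. coli (sole surface cysteine C177) or a model thiol, each 5 μM in degassed phosphate buffer pH 8 with immobilized TCEP, reacted with acrylamides at room temperature. Fluorescence (ex 380/em 470) normalized to DMSO/thiol control over time; first-order rate constants, Cdk2 rate divided by model-thiol rate.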

Cdk2(F80C, C177A) [2] = biological target: T3, Cdk2(F80C, C177A) (Homo sapiens, UniProt P24941, C177A/F80C); experiment: Intact protein mass spectrometry of labelling; assay type: binding; settings: after 2 hours of incubation
T3 construct: poly-histidine; made in house; host or cells: E. coli
Description: Mass spectrometry and X-ray crystallography were used to validate the binding of a hit ligand identified by the present method.
From the screen of Cdk2(F80C, C177A), we identified EL1071 as a hit molecule (rate enhancement relative to GSH=60.5).

[3] = Kinetic thiol consumption assay with model thiol glutathione; assay type: physicochemical; design: Rate constant with glutathione (k(GSH)): unit not given here; settings: for Rate constant with glutathione (k(GSH)): 500 μM ligand, 5 μM thiol, phosphate buffer pH 8; for Rate constant with Glutathione: Protein: Glutathione, cysteine position NA, in h-1
Outline: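 GSH 5 μM, degassed phosphate buffer pH 8, TCEP beads 2% v/v; acrylamide added; RT, 1 h; fluorescence ex/em 380/470 nm; normalized to DMSO/thiol control; k from first-order exponential decay fit.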

Cdk2(N272C) (C177A) = biological target: T4, Cdk2(N272C) (C177A) (Homo sapiens, UniProt P24941, C177A/N272C); experiment: Kinetic thiol consumption assay with Cdk2 mutant N272C; assay type: binding; design: key to Rate enhancement, Cdk2 N272: rate constant with Cdk2 ÷ rate constant with model thiol (fold); settings: for Rate enhancement, Cdk2 N272: Cdk2 N272, additional mutation C177A; for Rate constant with Cdk2 N272C: Protein: Cdk2, cysteine position N272C, additional mutation C177A, in h^-1
T4 construct: poly-histidine; made in house; host or cells: E. coli
Outline: as §1

Cdk2(C177A, F80C) = biological target: T5, Cdk2(C177A, F80C) (Homo sapiens, UniProt P24941, C177A/F80C); experiment: Kinetic thiol consumption assay with Cdk2 mutant F80C, incl. kobs versus concentration (Kd, k2); assay type: binding; design: key to Rate enhancement, Cdk2 F80C: Cdk2 rate constant divided by model-thiol rate constant; settings: for Rate enhancement, Cdk2 F80C / Rate constant with Cdk2 F80C: additional mutation C177A; for Rate constant with Cdk2 F80C: Protein: Cdk2, cysteine position F80C, in h^-1
T5 construct: poly-histidine; made in house; host or cells: E. coli
Outline: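 His-tagged Cdk2(C177A/F80C) from E. coli or model thiol, 5 μM in degassed phosphate buffer pH 8 with TCEP beads, reacted with acrylamide ligands; fluorescence (ex/em 380/470 nm) normalized to DMSO control and fitted to first-order decay for kobs. Kd and k2 obtained from hyperbolic fit of kobs versus ligand concentration.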

Cdk2(H71C) (C177A) = biological target: T6, Cdk2(H71C) (C177A) (Homo sapiens, UniProt P24941, C177A/H71C); experiment: Kinetic thiol consumption assay with Cdk2 mutant H71C; assay type: binding; design: key to Rate enhancement, Cdk2 H71C: rate constant with Cdk2 ÷ rate constant with model thiol (fold); settings: for Rate enhancement, Cdk2 H71C / Rate constant with Cdk2 H71C: additional mutation C177A; for Rate constant with Cdk2 H71C: Protein: Cdk2, cysteine position H71C, in h^-1
T6 construct: poly-histidine; made in house; host or cells: E. coli
Outline: as §1

Cdk2(S181C) (C177A) = biological target: T7, Cdk2(S181C) (C177A) (Homo sapiens, UniProt P24941, C177A/S181C); experiment: Kinetic thiol consumption assay with Cdk2 mutant S181C; assay type: binding; design: key to Rate enhancement, Cdk2 S181C: rate constant with Cdk2 ÷ rate constant with model thiol (fold); settings: for Rate enhancement, Cdk2 S181C / Rate constant with Cdk2 S181C: additional mutation C177A; for Rate constant with Cdk2 S181C: Protein: Cdk2, cysteine position S181C, in h^-1
T7 construct: poly-histidine; made in house; host or cells: E. coli
Outline: as §1

Cdk2(T182C) (C177A) = biological target: T8, Cdk2(T182C) (C177A) (Homo sapiens, UniProt P24941, C177A/T182C); experiment: Kinetic thiol consumption assay with Cdk2 mutant T182C; assay type: binding; design: key to Rate enhancement, Cdk2 T182C: rate constant with Cdk2 ÷ rate constant with model thiol (fold); settings: for Rate enhancement, Cdk2 T182C / Rate constant with Cdk2 T182C: additional mutation C177A; for Rate constant with Cdk2 T182C: Protein: Cdk2, cysteine position T182C, in h^-1
T8 construct: poly-histidine; made in house; host or cells: E. coli
Outline: as §1

Cdk2[C177A, F80C, K278C] = biological target: T9, Cdk2[C177A, F80C, K278C] (Homo sapiens, UniProt P24941, C177A/F80C/K278C); experiment: Kinetic thiol consumption assay with mutant Cdk2 as model thiol; assay type: binding; design: unit not given here; settings: 500 μM ligand, 5 μM thiol, phosphate buffer pH 8
T9 construct: poly-histidine; made in house; host or cells: E. coli
Outline: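 First-order rate constants were derived by exponential-decay fitting of DMSO/thiol-normalized fluorescence (380/470 nm) over time at room temperature. Thiol was 5 μM E. coli-expressed His-tagged Cdk2 mutant C177A/F80C/K278C in degassed pH 8 phosphate buffer containing 2% v/v TCEP beads.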

Cdk2(R122C) (C177A) = biological target: T10, Cdk2(R122C) (C177A) (Homo sapiens, UniProt P24941, C177A/R122C); experiment: Kinetic thiol consumption assay with Cdk2 mutant R122C; assay type: binding; design: key to Rate enhancement, Cdk2 R122C: rate constant with Cdk2 ÷ rate constant with model thiol (fold); settings: for Rate enhancement, Cdk2 R122C / Rate constant with Cdk2 R122C: additional mutation C177A; for Rate constant with Cdk2 R122C: Protein: Cdk2, cysteine position R122C, in h-1
T10 construct: poly-histidine; made in house; host or cells: E. coli
Outline: as §1

Cdk2(F80C, C177A) [4] = biological target: T3, Cdk2(F80C, C177A); experiment: Kinase assay; assay type: biochemical; settings: Cdk2(F80C, C177A) labelled with ligand
Description: Again, 1-Cdk2 refers to Cdk2(F80C, C177A) labelled with EL1071 (FIG. 10(c)). Finally, the EL1071-Cdk2(F80C, C177A) complex was crystallized and the structure determined by X-ray crystallography (FIG. 11). This confirms that the ligand binds to the cysteine residue at F80C and blocks the protein's active site leading to the observed inhibition.

[5] = system: Cdk2 constructs (except Cdk(WT)); experiment: Average of several thiols (Cdk2 constructs except WT) as model thiol; assay type: binding, human; settings: average over all Cdk2 constructs except Cdk2(WT)
Method: In Example 1 rate enhancements were calculated relative to the control thiol, glutathione.
As an example, the rate constant for ligand candidate EL1157 in reaction with all the Cdk2 constructs (except Cdk(WT)) were averaged and then compared to the rate constant with Cdk2(WT).

SMILES	Rate enhancement, Cdk2 S276C (Cdk2(S276C) (C177A))	Rate constant with Cdk2 S276C (Cdk2(S276C) (C177A))	Rate constant with Cdk2 (k(Cdk2)) [1]	Rate enhancement, Cdk2 WT [1]	Rate constant with Cdk2 WT [1]	k(Cdk2)/k(Cdk2_mut) rate enhancement [1]	k(Cdk2)/k(GSH) rate enhancement [1]	Rate constant with glutathione (k(GSH)) [3]	Rate constant with Glutathione [3]	Rate enhancement, Cdk2 N272 (Cdk2(N272C) (C177A))	Rate constant with Cdk2 N272C (Cdk2(N272C) (C177A))	Rate enhancement, Cdk2 F80C (Cdk2(C177A, F80C))	Rate constant with Cdk2 F80C (Cdk2(C177A, F80C))	Rate enhancement, Cdk2 H71C (Cdk2(H71C) (C177A))	Rate constant with Cdk2 H71C (Cdk2(H71C) (C177A))	Rate enhancement, Cdk2 S181C (Cdk2(S181C) (C177A))	Rate constant with Cdk2 S181C (Cdk2(S181C) (C177A))	Rate enhancement, Cdk2 T182C (Cdk2(T182C) (C177A))	Rate constant with Cdk2 T182C (Cdk2(T182C) (C177A))	Rate constant with Cdk2[C177A, F80C, K278C] (k(Cdk2_mut)) (Cdk2[C177A, F80C, K278C])	other results
C=CC(=O)N1CCCc2cc(C(=O)OC)ccc21 [EL-1071]	1.09	0.05538	0.433	8.522	0.433	1.341	8.5 and 8.576	0.051 and 0.05049	0.05081	0.6083	0.03091	60.48	3.073	7.215	0.3666	0.5036	0.02559	7.764	0.3945	0.323	hit classification, Example 1 ([1]; hits defined as kCdk2/kGSH>5.8 (3 standard deviations over the mean)): hit fragment; modification of Cdk2(F80C, C177A) by intact protein mass spectrometry (Cdk2(F80C, C177A) [2]): completely monomodified; hit classification against Cdk2(F80C, C177A) (Cdk2(C177A, F80C)): hit molecule; rate enhancement relative to GSH (Cdk2(C177A, F80C); Cdk2(F80C, C177A) versus GSH): 60.5; Rate enhancement, Cdk2 R122C (Cdk2(R122C) (C177A)): 0.2848; Rate constant with Cdk2 R122C (Cdk2(R122C) (C177A)): 0.01447; inhibition of kinase activity (Cdk2(F80C, C177A) [4]): completely inhibited
C=CC(=O)N1CCN(C(=O)OC(C)(C)C)c2ccccc21 [EL-1157]	1.046	0.07038	0.2006	2.982	0.2006	0.6586	1.592	0.126	0.06726	0.04255	0.002862	0.5847	0.03933	0.3892	0.02618	0.2053	0.01381	2.337	0.1572	0.3046	Rate constant k(average) [5]: 0.0449 h⁻¹; Rate constant k(Cdk2(S276C)) (Cdk2(S276C) (C177A)): 0.0704 h⁻¹; Rate constant k(Cdk2(WT)) [1]: 0.2006 h⁻¹; k(Cdk2(WT))/k(average) ([1]; average of multiple Cdk2 mutants as control thiol): 4.46; Rate constant k(Cdk2(N272C)) (Cdk2(N272C) (C177A)): 0.0029 h⁻¹; Rate constant k(Cdk2(F80C)) (Cdk2(C177A, F80C)): 0.0393 h⁻¹; Rate constant k(Cdk2(H71C)) (Cdk2(H71C) (C177A)): 0.0261 h⁻¹; Rate constant k(Cdk2(S181C)) (Cdk2(S181C) (C177A)): 0.0138 h⁻¹; Rate constant k(Cdk2(T182C)) (Cdk2(T182C) (C177A)): 0.1572 h⁻¹; Rate constant k(Cdk2(R122C)) (Cdk2(R122C) (C177A)): 0.0048 h⁻¹; Rate enhancement, Cdk2 R122C (Cdk2(R122C) (C177A)): 0.07164; Rate constant with Cdk2 R122C (Cdk2(R122C) (C177A)): 0.004819
C=CC(=O)Nc1cccc(Nc2ncnc3cc(OC)c(OC)cc23)c1 [GC248]	0.1863	0.002781	0.01014	0.9116	0.01361	0.65	0.6783	0.01495	0.01493	1.058	0.01579	0.1205	0.001799	0.6345	0.009473	1.037	0.01548	34.92	0.5214	0.0156	Rate enhancement, Cdk2 R122C (Cdk2(R122C) (C177A)): 0.8326; Rate constant with Cdk2 R122C (Cdk2(R122C) (C177A)): 0.01243
